A short description of one data set: in vitro. To be noted: human, hela cells, % viability.
As to `Cn1nc(CC(=O)Nc2ccccc2C(=O)O)c2ccccc2c1=O` [CBK286558], the viability at 28.5 h, 10 µM is 88.9%. Take `CCc1nn(CC(=O)NC2CC2)c(=O)c2cc3ccsc3n12` [CBK284128]: the viability at 28.5 h, 10 µM is 88.6%.

Turning to `N/C(=N\OC(=O)c1cc(-c2ccccc2)nc2ccccc12)c1cccnc1` [CBK265106], the viability at 28.5 h, 10 µM was found to be 101%. For `COc1ccc(-c2cc(Nc3ccc(OC)cc3OC)ncn2)cc1` [CBK090763], the viability at 28.5 h, 10 µM was found to be 46.7%. Still for that read-out and setting: in the case of `O=C(O)C1Nc2c(Cl)cc(Cl)cc2C2C=CCC12` (centres unmarked) [CBK077855] it was 78.5%; in that of `O=c1c2ccccc2nc2n1CCN(Cc1cccs1)CC2` [CBK284815], 92.3%. Consider `O=C(Cn1cccc2cc(C3CCNCC3)nc1-2)N1CCCCCC1` [CBK284679], for which the viability at 28.5 h, 10 µM was found to be 95.6%. Still for that read-out and setting: in the case of `O=C(C1CCCO1)N1CCC(c2onc3c2CCCCC3)CC1` (centres unmarked) [CBK284487] it was 98.4%; in that of `O=C(CSc1nnc(-c2cc(Br)ccc2O)n1-c1ccccc1)N1CCc2ccccc21` [CBK268346], 105%; in that of `Nc1nonc1C(=NCc1ccccc1)NO` [CBK261109], 105%.

Take `Cc1ccc(C(=O)O)cc1NC(=O)C1CCCCC1C(=O)O` (centres unmarked) [CBK263679]: the viability at 28.5 h, 10 µM stood at 93.5%. As to `O=C(O)c1ccc(CN2CCOCC2)o1` [CBK261426C], the viability at 28.5 h, 10 µM stood at 90.7%.

As for `Cc1nc2ccc(C(=O)c3ccccc3O)cn2c(=O)c1CCC(=O)O` [CBK295618], the viability at 28.5 h, 10 µM turned out to be 94.5%. On the same count and under the same terms, in the case of `C=CCNC(=O)CSc1nc(O)cc(=O)[nH]1` [CBK073298] it was 104%. `CCn1cncc1C(=O)Nc1ccc(-n2ccnc2C(C)C)cc1` [CBK281379]: the viability at 28.5 h, 10 µM was 95.8%. On the same count and under the same terms, in the case of `O=S(=O)(c1ccc(F)cc1)N1CCCC(c2nccnc2-c2ccc(F)cc2)C1` (centres unmarked) [CBK286136] it was 117%.

On to `COc1nccnc1N1CCN(CCCC#N)CC1` [CBK084225], for which the viability at 28.5 h, 10 µM came to 86.9%. As to `CN(C)C(=O)CN1N=C(C(C)(C)C)Cn2c(cc3ccccc32)C1=O` [CBK284210], the viability at 28.5 h, 10 µM was 81.8%.

In the case of `Cc1nccn1CCNC(=O)Cn1cnc2ccccc21` [CBK281983], the viability at 28.5 h, 10 µM turned out to be 102%. Still for that read-out and setting: in the case of `COc1cc(Nc2nc(-c3cccc4ccccc34)cn3ccnc23)cc(OC)c1OC` [CBK036608] it was 96.1%; in that of `Cn1nccc1NS(=O)(=O)c1ccc(Br)cc1C(F)(F)F` [CBK062082], 104%; in that of `Cc1nn(CC(C)C)c(Cl)c1C(=O)Nc1nc2ccc(F)cc2s1` [CBK252188], 90.4%. The same measure, in the same setting: in the case of `N#Cc1ccccc1CSc1nc2ccc([N+](=O)[O-])cc2[nH]1` [CBK269589] it was 84.5%.

Take `CN(Cc1nc2c(s1)CCCC2)C(=O)COc1ncnc2ccccc12` [CBK307151]: the viability at 28.5 h, 10 µM came out at 90.7%. Same read-out and setting: in the case of `O=C(NCCc1ccc(O)cc1)c1cncc(-c2ccc(C(=O)N3CCOCC3)cc2)c1` [CBK158620] it was 112%; in that of `CCc1nc(C(N)=O)c2[nH]c(=O)n(-c3ccccc3F)c2n1` [CBK287739], 107%. With `O=C(c1ccccn1)N1CCCC(c2cc3ccccc3cn2)C1` (centres unmarked) [CBK282832], the viability at 28.5 h, 10 µM was 96.3%.

`O=c1[nH]nc(SCc2ccccc2Cl)c(=S)[nH]1` [CBK027795]: the viability at 28.5 h, 10 µM is 117%.

Consider `COc1cccc(C2(C(=O)N3CCc4nc[nH]c(=O)c4C3)CC2)c1` [CBK304488], for which the viability at 28.5 h, 10 µM came out at 83.3%. On to `O=C(O)c1cc(NC(=O)C2CCCCC2)cc(C(=O)O)c1` [CBK286972], for which the viability at 28.5 h, 10 µM came out at 103%.

On to `CN(C)Cc1ccccc1C(O)c1ccccc1` (centres unmarked) [CBK261277], for which the viability at 28.5 h, 10 µM turned out to be 94.4%. The same measure, in the same setting: in the case of `O=C1COc2ccccc2C/C=C/CC2(CCN(C(=O)c3c[nH]cn3)CC2)C(=O)NCCN1` [CBK291990] it was 98.3%; in that of `CC(=O)c1ccc(-c2cc(N3CCN(CCN4CCCC4)CC3)ncn2)s1` [CBK091169], 98.8%; in that of `Cc1nc(C(=O)NC2CCN(C)CC2)ccc1C(=O)O` [CBK304262], 95.2%. As to `Cc1ccccc1C(c1ncccc1C)N(C)C(=O)C1CCN(Cc2ccc(Cl)c(Cl)c2)CC1` (centres unmarked) [CBK148366], the viability at 28.5 h, 10 µM stood at 92.2%. Still for that read-out and setting: in the case of `Cc1nc2ccc(C(=O)OCc3ccc(S(=O)(=O)Cc4ccccc4)cc3)cc2nc1C` [CBK269661] it was 97.6%. The same measure, in the same setting: in the case of `O=C(Nc1cnc(-c2cccc(OC(F)(F)F)c2)c(-c2cccnc2)n1)c1ccccn1` [CBK036837] it was 99.2%; in that of `Cc1c(-c2noc(-c3ccc4c(c3)OCO4)n2)nnn1Cc1ccccc1` [CBK288609], 116%; in that of `Cc1ccc(C(C)(C)C)c(OC(=O)c2cnc(C)cn2)c1` [CBK090261], 96.5%. On to `Cc1ccc(S(=O)(=O)Nc2ccc3c(ccn3CCOC3CCN(C(=O)OC(C)(C)C)CC3)c2)cc1Cl` [CBK172991], for which the viability at 28.5 h, 10 µM was found to be 99%. Still for that read-out and setting: in the case of `CCCCc1c(O)nc(SCC(=O)NCC2CCCO2)[nH]c1=O` (centres unmarked) [CBK073281] it was 97.6%; in that of `CCCC(=O)N1CCCCC1c1nn(C)cc1-c1onc(C)c1C` (centres unmarked) [CBK283409], 80.5%. As for `Cc1nc2c([N+](=O)[O-])c3c(c([N+](=O)[O-])c2[nH]1)Nc1nonc1N3` [CBK261069], the viability at 28.5 h, 10 µM turned out to be 107%. On to `Cc1cccc2c(C(=O)NCc3ccc(S(N)(=O)=O)cc3)cc(-c3ccccc3Cl)nc12` [CBK267743], for which the viability at 28.5 h, 10 µM was 93%. The same measure, in the same setting: in the case of `FC(F)(F)c1ccc(N2CCNCC2)nc1OCc1ccccc1COc1ccccc1` [CBK003965A] it was 91.9%; in that of `Cc1ccc2nc(C(=O)O)cc(OCC(=O)Nc3ccccc3F)c2c1` [CBK287255], 88.8%. Same read-out and setting: in the case of `Cc1nn2c(O)c3c(nc2c1-c1cccs1)CCC3` [CBK283729] it was 85.7%; in that of `O=C(NCc1csc2c1CCCC2)N1CC(c2ccccn2)C1` [CBK307499], 100%.

As to `Cc1ccc(N2CC(c3nc(-c4ccncc4)no3)CC2=O)cc1Cl` (centres unmarked) [CBK288582], the viability at 28.5 h, 10 µM amounted to 109%. Same read-out and setting: in the case of `CN(C)CCNC(=O)c1ccc(-c2cnc(OCC3CCN(C(=O)OC(C)(C)C)CC3)nc2)cc1` [CBK167544] it was 89.8%; in that of `CCCC(=O)N1CCC(c2nc3ccccc3cc2NC(C)=O)CC1` [CBK285258], 78.4%. On to `CCC1(CCc2ccccc2)CC(O)=CC(=O)O1` (centres unmarked) [CBK012790], for which the viability at 28.5 h, 10 µM was 98.5%. Consider `O=C(CCS(=O)(=O)c1cc(Cl)ccc1Cl)OCC(=O)c1ccccc1` [CBK261256], for which the viability at 28.5 h, 10 µM came to 90.1%. On the same count and under the same terms, in the case of `Cc1cccc(OCC2CCCN(C(=O)NCCc3cnn(C)c3)C2)c1` (centres unmarked) [CBK307358] it was 96.9%; in that of `COc1ccc(C)cc1NC(=O)c1cnc2sc(C)cn2c1=O` [CBK287714], 105%. On the same count and under the same terms, in the case of `Cc1ccc2c(c1)-c1c(ssc1=S)C(C)(C)N2C(=O)COc1nc2ccccc2s1` [CBK262682] it was 88%. Same read-out and setting: in the case of `O=C(NCc1cccnc1)c1ccc(-c2ccoc2)nc1` [CBK156275] it was 89.6%; in that of `CS(=O)(=O)c1cccc(C(=O)n2c(=O)n(CC3CCCCC3)c3ccccc32)c1` [CBK106520], 103%; in that of `O=C(Nc1ccc(N2CCN(C(=O)c3ccco3)CC2)cc1)c1cccnc1` [CBK270034], 102%. `Cc1ccc(OCc2ccc(Cl)nc2)c(Br)c1` [CBK002842]: the viability at 28.5 h, 10 µM was found to be 75.8%.

Regarding `Cc1cc(-c2cc(=O)n(Cc3ccc(F)cc3)nc2C2CC2)on1` [CBK284364], the viability at 28.5 h, 10 µM is 98.2%. On the same count and under the same terms, in the case of `COCC(C)NCc1ccccc1C` (centres unmarked) [CBK027852] it was 115%. `COC(=O)[C@@H]1Cc2ncn(C(C)C)c2CN1S(=O)(=O)c1ccc([N+](=O)[O-])cc1` [CBK288985]: the viability at 28.5 h, 10 µM is 95.7%.

With `CCOC(=O)[C@@]12CC=CCN(C(=O)c3ccco3)[C@@H]1CCC2` [CBK284574], the viability at 28.5 h, 10 µM came out at 104%. Same read-out and setting: in the case of `CC(=O)N1CCC[C@H]2NC(=O)CNC(=O)C3(C/C=C/C[C@H]21)CCN(Cc1ccccc1O)CC3` [CBK292054] it was 99.3%; in that of `COc1cc(CNn2c(C)nnc2S)cc(Br)c1OCC(=O)NC(C)(C)C` [CBK266575], 112%; in that of `O=C(O)c1cccc(NS(=O)(=O)c2ccc(OC(F)(F)F)cc2)c1` [CBK155077], 92.7%.

Turning to `O=C(NCCc1ccccc1)c1ccccc1NS(=O)(=O)N1CCCC1` [CBK268407], the viability at 28.5 h, 10 µM was found to be 80.5%. Same read-out and setting: in the case of `CC(C)CN1CCC(C(=O)NC(c2ccc(Cl)cc2)c2cnccn2)CC1` (centres unmarked) [CBK148026] it was 96.6%; in that of `COCCN(C(=O)c1ccc2ccccc2c1)C1CCS(=O)(=O)C1` (centres unmarked) [CBK305758], 102%. The same measure, in the same setting: in the case of `Cc1ccc(CN(CCCN2CCOCC2)Cc2ccoc2)o1` [CBK283234] it was 81%; in that of `Cc1cc(CN2CCOCC2)oc1C(=O)O` [CBK263239C], 104%; in that of `CCC(Sc1nc(C)cc(C)n1)C(=O)Nc1ccc(NC(C)=O)cc1` (centres unmarked) [CBK269804], 89%.

As for `CC(=O)C(C)n1c(CN2CCCC(C)C2)nc2c1c(=O)n(C)c(=O)n2C` (centres unmarked) [CBK306061], the viability at 28.5 h, 10 µM was 88.2%.

As to `O=C(c1cncnc1)N1CCN(c2ncccn2)CC1` [CBK144515], the viability at 28.5 h, 10 µM was 88%.

Regarding `CN(C)S(=O)(=O)N1CCN(c2ccc([N+](=O)[O-])c(NC3CC3)c2)CC1` [CBK265158], the viability at 28.5 h, 10 µM came to 87%.

With `Cc1ccc(CN(CCCn2ccnc2)Cc2nc3ccccc3[nH]2)o1` [CBK283103], the viability at 28.5 h, 10 µM came out at 90.9%. As to `Cc1nc2n(c1C)CCN(c1ccc3nnc(C(F)(F)F)n3n1)C2` [CBK305815], the viability at 28.5 h, 10 µM turned out to be 102%.

The same data set, now with this note: human, hela cells, % viability, bulk resorufin, single well.
Consider `CN(C)C(=O)c1ccc(Cn2nc(C(=O)NC3CC3)c3ccccc32)cc1` [CBK047720], for which the viability at 28.5 h, 10 µM was 93.1%. Same read-out and setting: in the case of `O=C(NO)Nc1ccc(Cl)c(Cl)c1` [CBK016929] it was 96.3%.
